Laboratory results taken from patent publication US6906061B2, “Pharmaceutical agent containing Rho kinase inhibitor” (Mitsubishi Pharma Corporation, priority 1996, dated 2005).

Assays:
[1] = system: Bovine Aorta Thoracia Rho Kinase; experiment: Rho kinase inhibitory action (inhibition of bovine aorta thoracia Rho kinase); type: biochemical; details: test compound 10 μM
Description: Rho Kinase Inhibitory Action (Inhibition of Bovine Aorta Thoracia Rho Kinase)
The Rho kinase was prepared from bovine aorta of thorax by partial purification as in the following. The artery was minced and homogenized with a 9-fold amount of 50 mM Tris-hydroxymethylaminomethane (Tris) (pH=7.4), 1 mM dithiothreitol, 1 mM EGTA, 1 mM EDTA, 100 μM p-amidinophenylmethylsulfonyl fluoride, 5 μM E-64, 5 μM leupeptine and 5 μM pepstatin A. The homogenate was centrifuged (10,000×g, 30 minutes) to give supernatant. The supernatant was adsorbed onto a hydroxyapatite column. The column was washed with 0.2M phosphate buffer (pH=6.8). The standard product of Rho kinase was eluted with 0.4M phosphate buffer (pH=6.8). The Rho kinase was assayed as follows.
A reaction mixture (total amount 50 μl) containing 50 mM Tris, 1 mM EDTA, 5 mM MgCl2, 50 μg/ml histone, 10 μM GTPγS, 100 μg/ml Rho, 2 μM [^32P]ATP, the Rho kinase (3 μl) prepared in the above and the test compound was reacted at 30° C. for 5 minutes. The reaction was terminated by the addition of 25% trichloroacetic acid (TCA) solution (1 ml) and the mixture was stood at 4° C. for 30 minutes. Then, the mixture was filtered through a membrane filter (HAWP type, Millipore), and the radioactivity of the filter was counted on a liquid scintillation counter. The inhibitory action of the test compound was calculated from the following formula based on the comparison of the radioactivity with the sample without the test compound (control).

[2] = system: thoractic aorta ring contracted with phenylephrine; experiment: Vasodilating action on phenylephrine-contracted thoracic aorta rings; details: Oryctolagus cuniculus; rabbit aortic ring, phenylephrine 10^−6 M contraction; concentration for 50% relaxation; read-out: Vasorelaxing action
Description: Male rabbits (body weight 1.9-3.0 kg) were anesthetized with pentobarbital sodium and exsanguinated, whereafter thoractic aorta was removed. An about 2 mm width aortic ring samples were prepared and hung in a Magnus bath (40 ml) filled with Krebs-Henseleit solution (37° C., NaCl 117 mM; KCl 4.7 mM; CaCl2 2.5 mM; MgSO4 1.2 mM; NaHCO3 24.8 mM; KH2PO4 1.2 mM; glucose 11.0 mM) at a load of 2 g. The Magnus bath was constantly bubbled with a mixed gas (95% O2+5% CO2 gas). The tension of the preparation was measured with an isomeric transducer (TB-611T, Nippon Koden). The preparation was contracted with phenylephrine (10^−6 M) and, after the contraction was stabilized, the test compound was added accumulatively and relaxing action was observed.

[3] = system: trachea specimen contracted with acetylcholine; experiment: Effect on contraction by acetylcholine of trachea specimen removed from guinea pig; details: Cavia porcellus, acetylcholine 10^−6 M contraction, 50% relaxation vs papaverine 10^−4 M maximum, read-out: Trachea relaxing action
Description: Male Hartley guinea pigs (body weight 260-390 g) were anesthetized by the peritoneal administration of pentobarbital sodium (100 mg/kg) and exsanguinated, whereafter trachea was removed. The anterior cartilage of the trachea was opened and the band was cut in a 3 mm width strip to give a specimen. The specimen was hung in a Magnus bath (40 ml) filled with Krebs-Henseleit solution (NaCl 117 mM; KCl 4.7 mM; CaCl2 2.5 mM; MgSO4 1.2 mM; NaHCO3 24.8 mM; KH2PO4 1.2 mM; glucose 11.0 mM) at a load of 1 g. The Magnus bath was constantly bubbled with a mixed gas (95% O2+5% CO2 gas). The tension of the strip was measured with an isomeric transducer (TB-611T, Nippon Koden) and depicted on a recorder (Ti-102, Tokai Irika).

[4] = system: hind limb skin blood flow; experiment: Peripheral blood flow increasing action in STZ-induced diabetic rats; type: in vivo, rat; details: intravenous
Description: Peripheral Blood Flow Increasing Action
Streptozotocin (STZ, 65 mg/kg) was intravenously injected to male SD rats (body weight 200-300 g) to prepare diabetic rats. One month later, STZ-induced diabetic rats were anesthetized with pentobarbital sodium and the blood flow in the hind limb skin was measured with laser blood flowmeter (ALF21R, Advance). The test compound was intravenously administered via catheter dwelled in the carotid arteries, and hind limb skin blood flow increasing action was observed. The blood flow increasing action of the test compound was expressed by increase percentage from the blood flow before administration.

[5] = system: CEM cells (human T cell type established cell); experiment: Inhibition of VLA integrin activation (phorbol ester-induced adhesion of CEM cells to fibronectin); type: cell-based; details: CCRF-CEM, PMA-induced adhesion, read-out: Adhesion induction inhibition (%)
Description: Inhibition of VLA (Very Late Antigen) Integrin Activation
As the index of the activation by VLA integrin, phorbol ester-induced adhesion of CEM cells (human T cell type established cell) to fibronectin, which is a ligand of VIA integrin, was measured. The inhibitory action on the induced adhesion by the test compound was determined by the following method.
CEM cells were washed with RPMI1640 medium containing 0.5% bovine serum albumin (BSA), 10 mM HEPES, 2 mM L-glutamin, 1 mM sodium pyruvate, 60 μg/ml kanamycin sulfate and 1.5 mg/ml sodium hydrogencarbonate (hereinafter this medium is referred to as culture solution) and suspended in this medium for use in the following experiment. To each well of a 96 well plate coated with human fibronectin were added CEM cells (5×10^4) and the test compound dissolved in the culture solution (final concentration 1-100 μM) to the amount of 100 μl, and the plate was stood at 37° C. for 1 hour. Then, PMA (phorbol 12-myristate 13-acetate, TPA; final concentration 10 ng/ml) and the test compound were added to the amount of 200 μl, and the plate was stood at 37° C. for 30 minutes. Each well was washed twice with the culture solution (200 μL) at 37° C., and the LDH (lactate dehydrogenase) activity of the cells adhered to the plate was determined, whereby the amount of the adhered cell was measured. Based on the results obtained by the above-mentioned method, the inhibitory action of the test compound on the induced adhesion was calculated by the following formula The results are shown in Table 6. Inhibition (%) of adhesion induction=(a−b)/(a−c)×100 • a=number of cells adhered with the addition of PMA • b=number of cells adhered with the addition of test compound and PMA • c=number of cells adhered without stimulation

[6] = system: normal human umberical vascular endothelial cells; experiment: Inhibition of angiogenesis (lumen formation in vascular endothelial cells); type: cell-based; details: 18 hours, compared with the control, number rises with inhibition of lumen formation
Description: Inhibition of Angiogenesis
The inhibition of angiogenesis was evaluated by using the inhibition of lumen formation in vascular endothelial cell as an index. To be specific, normal human umberical vascular endothelial cells (KURABO […] LTD.) were suspended in E-GMUV medium at 5.5×10^4 cells/ml and 400 μl therefrom was added on matrigel plate (EHS sarcoma-derived reconstructed basement membrane, Collaborative Biomedical Products). Then, the test compound (1 mM solution, 4 μl) was added and the cells were incubated at 37° C. under 5% CO2 gas for 18 hours. After the completion of the incubation, the number of lumen per predetermined area was counted under a microscope. Inasmuch as the number of lumen increases by the inhibition of lumen formation, the test compound was evaluated by comparison of the number of lumen with the control.

[7] = system: smooth muscle cell (SMC) from rat aorta; experiment: Inhibition of growth of vascular smooth muscle cell; type: cell-based; details: 48 hours, MTT
Description: Inhibition of Growth of Vascular Smooth Muscle Cell
The separation from the artery of rat and culture of smooth muscle cell (SMC) followed the explant method of Ross (Ross, R. and Glomset, J. A., N. Engl. J. Med., 295, 369-420, 1976). Male wistar rats (10 week old) was slaughtered by cutting the carotid arteries and aorta of thorax was removed. After removal of fat tissues around the tunica externa and peeling of tunica intima, the artery was minced and incubated in 10% fetal bovine serum (FBS)-containing DMEM medium at 37° C. under 5% CO2 gas. Seven days later, the out-grown cells were separated by trypsin treatment, washed with phosphate-buffered saline (PBS) and incubated in 10% FBS-containing DMEM medium in a 80 cm^2 culture flask. The cells of subculture 2 were suspended in 10% FBS-containing DMEM medium at 5×10^4 cells/ml and 100 μl thereof per well was added to 96 well collagen-coated plate, which was incubated at 37° C. under 5% CO2 gas for one day. The test compound was appropriately diluted with dimethyl sulfoxide (DMSO) and added to the 96 well plate. The concentration of DMSO in the medium was adjusted to 1%. After 48 hours, 10 μl of MTT solution (5 mg/ml) was added and, 4 hours later, 10% sodium dodecyl sulfate-0.01 N hydrochloric acid (50 μl) was added. The absorbance at 570 nm was measured the following day by an immunoreader. The SMC growth inhibitory action of the test compound was shown by inhibition percentage calculated by the following formula The results are shown in Table 10.

[8] = molecular target: T1, Human Platelet Rho Kinase (p160ROCK) (Homo sapiens, UniProt Q13464); experiment: Rho kinase inhibitory action (inhibition of human platelet Rho kinase (p160ROCK)); type: biochemical; details: histone substrate, 1 μM ATP
T1 construct: Human platelet p160ROCK was isolated by the method of Ishizaki et al; from tissue; host or cells: human platelets
T1 sequence (Q13464 whole entry): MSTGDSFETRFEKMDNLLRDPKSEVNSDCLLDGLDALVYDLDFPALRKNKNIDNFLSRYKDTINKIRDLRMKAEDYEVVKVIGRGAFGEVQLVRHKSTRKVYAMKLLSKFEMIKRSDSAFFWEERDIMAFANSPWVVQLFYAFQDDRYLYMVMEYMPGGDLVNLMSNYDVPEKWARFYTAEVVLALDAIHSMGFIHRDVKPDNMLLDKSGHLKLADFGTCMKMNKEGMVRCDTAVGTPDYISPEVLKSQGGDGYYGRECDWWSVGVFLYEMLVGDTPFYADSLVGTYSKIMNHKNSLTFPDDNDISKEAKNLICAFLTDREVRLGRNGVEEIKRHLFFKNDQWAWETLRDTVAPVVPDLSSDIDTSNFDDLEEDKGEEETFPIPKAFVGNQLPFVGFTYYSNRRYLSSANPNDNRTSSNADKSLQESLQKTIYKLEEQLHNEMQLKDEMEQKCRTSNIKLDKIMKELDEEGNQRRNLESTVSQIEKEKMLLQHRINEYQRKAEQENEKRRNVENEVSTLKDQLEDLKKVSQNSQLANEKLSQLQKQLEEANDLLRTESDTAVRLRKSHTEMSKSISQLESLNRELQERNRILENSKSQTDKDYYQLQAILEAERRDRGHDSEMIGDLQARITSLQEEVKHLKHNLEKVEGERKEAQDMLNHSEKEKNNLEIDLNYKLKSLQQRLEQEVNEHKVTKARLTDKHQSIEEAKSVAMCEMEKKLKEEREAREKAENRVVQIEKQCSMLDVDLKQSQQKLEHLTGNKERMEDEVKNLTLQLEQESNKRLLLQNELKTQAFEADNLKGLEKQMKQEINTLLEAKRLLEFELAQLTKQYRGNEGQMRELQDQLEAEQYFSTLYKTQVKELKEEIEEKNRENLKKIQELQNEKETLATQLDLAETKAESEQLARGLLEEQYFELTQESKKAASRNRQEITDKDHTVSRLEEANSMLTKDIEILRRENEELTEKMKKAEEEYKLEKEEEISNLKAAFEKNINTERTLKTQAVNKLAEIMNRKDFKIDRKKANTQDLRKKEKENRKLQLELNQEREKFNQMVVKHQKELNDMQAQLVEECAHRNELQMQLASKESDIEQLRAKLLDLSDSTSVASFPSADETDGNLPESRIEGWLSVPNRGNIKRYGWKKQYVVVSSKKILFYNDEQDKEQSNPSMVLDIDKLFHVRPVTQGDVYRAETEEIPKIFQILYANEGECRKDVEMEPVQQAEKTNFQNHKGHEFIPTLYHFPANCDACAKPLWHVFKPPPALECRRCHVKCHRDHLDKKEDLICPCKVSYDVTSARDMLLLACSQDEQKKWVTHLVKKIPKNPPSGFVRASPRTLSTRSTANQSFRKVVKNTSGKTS
Description: Rho Kinase Inhibitory Action (Inhibition of Human Platelet Rho Kinase (p160ROCK))
(§1) Kinase assay included the following steps. That is, a reaction mixture (total amount 30 μl) containing 50 mM Hepes-NaOH (pH=7.4), 10 mM MgCl2, 5 mM MnCl2, 2 mM dithiothreitol, 0.02% Brij35, 1 μM [γ-^32P]ATP, 330 μg/ml histone, p160ROCK (2 μl) isolated by the method of Ishizaki et al. and the test compound was incubated at 30° C. for 20 minutes. The solution was mixed with a 1/3 amount of 4× Laemmli sample buffer, boiled for 5 minutes and applied to SDS-PAGE. The gel was stained with Coomassie Brilliant Blue and dried. The band of histone was cut out and assayed for radioactivity.

[9] = molecular target: T2, p160ROCK (Homo sapiens, UniProt Q13464); experiment: Inhibition of p160ROCK (myc-tagged, expressed in COS cells); type: biochemical; details: enzyme expressed in COS cells
T2 construct: made in house; host or cells: COS cells (transient transfection, immunoprecipitated with 9E10 anti-myc antibody on protein G-Sepharose)
T2 sequence (Q13464 whole entry): as above
Description: as §1
(§2) Rho Kinase Inhibitory Action (Inhibition of p160ROCK and ROCKII)
(§3) COS cells were seeded in a 3.5 cm dish and incubated overnight. […] After incubation for 20 hours, the cells were washed once with ice-cooled PBS, and the cells were lysed on ice for 20 minutes using a lysis buffer (20 mM Tris-HCl (pH=7.5), 1 mM EDTA, 1 mM EGTA, 5 mM MgCl2, 25 mM NaF, 10 mM β glycerophosphate, 5 mM sodium pyrophorphate, 0.2 mM phenylmethylsulfonyl fluoride, 2 mM dithiothreitol, 0.2 mM sodium vanadate, 0.05% Triton X-100, 0.1 μM calyculin A). The lysate was centrifuged at 10,000×g for 10 minutes and the supernatant was recovered. […] Then, protein G-Sepharose was added and the mixture was shaken for 2 more hours. […]

[10] = molecular target: T3, ROCKII (Mus musculus, UniProt P70336); experiment: Inhibition of ROCKII (myc-tagged, expressed in COS cells); type: biochemical; details: enzyme expressed in COS cells; read-out: IC50 (μM) ROCK-II
T3 construct: made in house; host or cells: COS cells (transient transfection, immunoprecipitated with 9E10 anti-myc antibody on protein G-Sepharose)
T3 sequence (P70336 whole entry): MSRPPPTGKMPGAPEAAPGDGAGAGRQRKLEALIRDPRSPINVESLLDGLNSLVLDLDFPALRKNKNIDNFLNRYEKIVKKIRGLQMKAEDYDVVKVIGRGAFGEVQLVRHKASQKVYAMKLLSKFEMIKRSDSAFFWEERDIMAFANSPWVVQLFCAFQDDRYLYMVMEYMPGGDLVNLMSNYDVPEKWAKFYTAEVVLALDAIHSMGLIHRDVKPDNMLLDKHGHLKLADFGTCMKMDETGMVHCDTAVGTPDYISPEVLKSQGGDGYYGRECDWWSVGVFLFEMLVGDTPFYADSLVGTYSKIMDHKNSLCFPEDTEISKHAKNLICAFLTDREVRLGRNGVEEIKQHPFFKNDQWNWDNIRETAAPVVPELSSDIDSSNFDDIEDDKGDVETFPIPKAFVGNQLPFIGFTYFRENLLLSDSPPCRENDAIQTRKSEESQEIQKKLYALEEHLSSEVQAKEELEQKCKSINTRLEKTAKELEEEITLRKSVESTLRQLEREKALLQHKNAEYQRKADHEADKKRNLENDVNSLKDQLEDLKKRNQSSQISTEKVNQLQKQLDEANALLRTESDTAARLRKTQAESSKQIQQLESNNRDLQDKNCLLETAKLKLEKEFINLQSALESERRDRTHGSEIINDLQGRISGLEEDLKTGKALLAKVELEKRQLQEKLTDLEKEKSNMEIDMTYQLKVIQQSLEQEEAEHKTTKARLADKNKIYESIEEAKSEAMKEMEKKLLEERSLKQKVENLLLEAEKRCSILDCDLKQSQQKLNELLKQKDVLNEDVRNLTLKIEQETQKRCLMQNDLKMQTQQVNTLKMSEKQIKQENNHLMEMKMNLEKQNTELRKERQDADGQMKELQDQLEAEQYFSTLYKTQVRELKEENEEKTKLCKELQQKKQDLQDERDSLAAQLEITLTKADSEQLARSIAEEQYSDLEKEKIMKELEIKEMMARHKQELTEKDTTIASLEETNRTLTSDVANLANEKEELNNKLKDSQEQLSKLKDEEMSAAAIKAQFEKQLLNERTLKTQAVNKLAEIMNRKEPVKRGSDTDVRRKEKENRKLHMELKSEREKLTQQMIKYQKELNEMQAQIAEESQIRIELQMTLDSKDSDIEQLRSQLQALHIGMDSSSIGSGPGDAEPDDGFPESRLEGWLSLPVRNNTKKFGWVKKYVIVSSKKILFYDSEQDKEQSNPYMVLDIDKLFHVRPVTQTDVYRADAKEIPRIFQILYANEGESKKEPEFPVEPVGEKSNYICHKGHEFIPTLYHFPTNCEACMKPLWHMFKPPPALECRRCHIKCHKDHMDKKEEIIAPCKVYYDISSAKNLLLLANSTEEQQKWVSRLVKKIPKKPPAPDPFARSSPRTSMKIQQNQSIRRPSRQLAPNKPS
Description: as §1, §2, §3

[11] = system: mouse femoral bone; experiment: Inhibition of bone resorption (in vitro), mouse femoral bone; details: 144 h, 6 days incubation of ICR mouse femoral bone
Description: Inhibition of Bone Resorption (in vitro)
The determination of the in vitro inhibition of bone resorption using mouse femoral bone followed the method below.
The femoral bone of 3-6 week old male ICR mice was aseptically removed, and bone marrow cavity was washed with F12 medium, containing 10% heat inactivated fetal bovine serum, penicillin G calcium (100 units/ml), kanamycin sulfate (60 μg) and 0.15% sodium hydrogencarbonate (hereinafter the medium is to be referred to as culture solution). After washing the bone marrow cavity and then removing the soft tissue adhered to the bone, the bone was subjected to incubation. The test compound was once dissolved in dimethyl sulfoxide (DMSO) to give a 10 mg/ml solution, which was diluted 1000-fold with the culture solution to give a 10 μg/ml solution. The test compounds were respectively added to the concentration shown in Table 7 and, using this culture solution (1.2 ml), the ICR mouse femoral bone was incubated in a 24 well plate for 6 days under the conditions of 5% CO2 gas, 95% air. After the completion of the incubation, the culture supernatant was recovered, and the amount of calcium suspending in the culture supernatant was quantitatively determined by the chelate method using o-cresolphthalein. The bone resorption inhibitory action of the test compound was calculated by the following formula using the incubation of the femoral bone without addition of the test compound as a control. [formula] This experiment was done with 4 cases in each group. As the control, the same amount of DMSO alone as in the case with the addition of the test compound was used.

[12] = system: ddY mice; experiment: Acute toxicity in ddY mice; type: in vivo; details: intraperitoneal administration at 30 mg/kg, monitored for 5 days
Excerpt: The compound 109.2HCl and compound 143.2HCl.H2O were respectively administered intraperitoneally to ddY mice and the mice were monitored for 5 days.

| Compound | Inhibition (%) [1] | IC50 [2] | IC50 [3] | Increase in skin blood flow ± standard error (%) ([4]; 0.03 μg) | Increase in skin blood flow ± standard error (%) ([4]; 0.1 μg) | inhibition at 10 µM ([5]; concentration 10 μM) | Number of lumen (10 μM) [6] | IC50 [7] | IC50 [8] | IC50 [9] | IC50 [10] | inhibition at 100 µM ([5]; concentration 100 μM) | inhibition at 100 µM [11] | Acute toxicity (death) [12] |
| --- | --- | --- | --- | --- | --- | --- | --- | --- | --- | --- | --- | --- | --- | --- |
| C[C@@H](N)c1ccc(C(=O)Nc2ccnc3[nH]ccc23)cc1 [Compound 165.2HCl.3/2H2O, (R)-(+)-N-(1H-pyrrolo[2,3-b]pyridin-4-yl)-4-(1-aminoethyl)benzamide] | 100% | 51 nM | 66 nM | 135.8 ± 0.0% | 144.7 ± 0.0% | 40% | 222% | 38 µM |  |  |  |  |  |  |
| N=C(N)NC[C@H]1CC[C@H](C(=O)Nc2ccnc3[nH]ncc23)CC1 [Compound 143.2HCl.H2O, trans-N-(1H-pyrazolo[3,4-b]pyridin-4-yl)-4-guanidinomethylcyclohexanecarboxamide] |  |  |  |  |  |  |  |  | 1600 nM | 0.88 µM | 0.47 µM | 77% | 39.4% | did not cause death |
